Reference: publication PMC11514582, “Leveraging the Aggregated Protein Dye YAT2150 for Malaria Chemotherapy” (Pharmaceutics, 2024)
Like-named read-outs stand apart in the source and are kept apart here.

Key:
[1] = Cytotoxicity assay in Caco-2 (resazurin); type: cell-based; details: human, read-out: Caco-2 inhibition (CC50)
[2] = tested on: P. falciparum gametocytes; details: cited from earlier work
[3] = Cytotoxicity assay in MCF7 (MTT); type: cell-based; details: human, MCF-7 cells, read-out: MCF7 inhibition (CC50)
Description: THP-1 human acute monocytic leukemia cells and NCI-H460 human lung carcinoma cells were grown in RPMI supplemented with 10% FBS. Hep-G2 human hepatocellular carcinoma cells were cultured in Eagle’s minimum essential medium (EMEM) supplemented with 10% FBS. A2780 human ovarian carcinoma cells were grown in RPMI supplemented with 10% FBS and 2 mM L-glutamine. MCF-7 human breast adenocarcinoma cells were cultured in EMEM containing 2 mM L-glutamine and Earle’s balanced salt solution adjusted with 1.5 g/L sodium bicarbonate, 0.1 mM non-essential amino acids, and 1 mM sodium pyruvate and supplemented with 10% FBS. […] Except for Caco-2 and HUVEC, inhibition of cell growth was evaluated using a protocol based on monitoring the transformation into formazan of the tetrazolium salt of MTT (3-(4,5-dimethylthiazol-2-yl)-2,5-diphenyltretrazolium bromide) by metabolically active cells. […] After 96 further h of incubation in the same conditions, 10 µL of a 5 mg/mL MTT solution in PBS was added to each sample, and the incubation was resumed for another 4 h. […] The absorbance measurement range was framed between one sample containing 4000 cells in plain growth medium (to determine the stable cell concentration) and another sample containing an equal cell number in growth medium supplemented with growth factors (to measure the maximum cell growth at 96 h).

[4] = target: CYP3A4 (Homo sapiens, UniProt P08684); assay: in vitro; details: microsomes
CYP3A4, sequence (P08684 whole entry): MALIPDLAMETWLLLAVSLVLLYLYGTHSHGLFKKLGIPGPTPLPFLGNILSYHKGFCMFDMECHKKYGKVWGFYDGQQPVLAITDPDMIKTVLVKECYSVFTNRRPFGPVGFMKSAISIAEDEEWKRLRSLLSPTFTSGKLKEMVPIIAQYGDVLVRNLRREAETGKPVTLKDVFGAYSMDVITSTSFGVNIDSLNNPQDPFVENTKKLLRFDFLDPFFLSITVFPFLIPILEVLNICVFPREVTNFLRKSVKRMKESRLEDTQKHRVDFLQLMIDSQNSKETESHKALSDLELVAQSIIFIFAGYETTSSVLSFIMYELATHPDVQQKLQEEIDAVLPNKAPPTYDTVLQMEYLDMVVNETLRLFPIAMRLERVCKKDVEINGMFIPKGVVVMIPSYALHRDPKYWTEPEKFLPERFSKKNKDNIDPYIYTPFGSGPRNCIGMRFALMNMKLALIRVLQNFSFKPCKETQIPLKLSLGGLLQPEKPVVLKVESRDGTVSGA

[5] = Human plasma protein binding (Rapid Equilibrium Dialysis); type: in vitro ADME; details: pH 7.2, RED, 4 h at 37 °C
Description: The assay was carried out by Rapid Equilibrium Dialysis (RED). The compounds were dissolved at 5 μM in human plasma and added to the corresponding insert of the RED device (Thermo Fisher Scientific, Inc., Waltham, MA, USA), and dialysis was performed for 4 h at 37 °C in […], 25 mM tris-HCl, pH 7.2 (Tris BupH^TM, Thermo Fisher Scientific, Inc.). Then, 50-µL aliquots from each chamber were transferred to empty vials, to which 50 µL of dialysis buffer was added. As control, 50 µL of plasma was mixed with 50 µL of buffer. Three hundred µL of acetonitrile was added to all the samples, which were analyzed by ultra-performance liquid chromatography with tandem mass spectrometry as previously described.

[6] = Cytotoxicity assay in HUVEC (resazurin); type: cell-based; details: human, read-out: HUVEC inhibition (CC50)
[7] = tested on: P. berghei ookinete development; assay: Ex vivo gametocyte-to-ookinete transition inhibition (ookinete maturation) assay; type: cell-based, Plasmodium berghei; details: ex vivo, 24 h at 21 °C
Description: Eight days before ookinete production, 100 µL of a red blood cell (RBC) pellet containing the Plasmodium berghei circumsporozoite protein and thrombospondin-related adhesive protein (TRAP)-related protein (CTRP)-green fluorescent protein (GFP) strain (CTRP-GFP, which expresses GFP when reaching ookinete stage, kindly provided by Inga Siden-Kiamos) in cryopreservation solution (RBC pellet:RPMI:30% glycerol in water, 1:1:2) was administered intraperitoneally (i.p.) to a BALB/c mouse (Charles River Laboratories, Wilmington, MA, USA). […] The effect of drugs on gametocyte-to-ookinete conversion was assessed in three independent replicas by plating 120 µL of each culture treated with serial dilutions of the compounds in 96-well plates and incubated for 24 h at 21 °C with orbital shaking at 50 rpm (modified from). Finally, samples diluted 1:100 in PBS were analyzed in an LSRFortessa flow cytometer (BD Biosciences, Franklin Lakes, NJ, USA) set up with the 4 lasers, 20 parameters standard configuration. The GFP positive cell population was counted (λexcitation: 488 nm; λemission: 525/40 nm) using BD FACSDiva software 6.1.3 (BD Biosciences) for data collection and Flowing Software 2.5.1 (Turku Center for Biotechnology, Turku, Finland) for analysis.

[8] = human hepatocytes; cited from earlier work

CCN(CC)c1ccc(/C=C/c2cc[n+](CCCCCCCCCC[n+]3ccc(/C=C/c4ccc(N(CC)CC)cc4)c(C)c3)cc2C)cc1 [YAT2150]
CC50 at 48 h [1]: 18.2 ± 2.6 µM | IC50 ([2]; read-out: in vitro IC50 for P. falciparum gametocyte cultures): ~0.1 µM | IC50 ([2]; stage I–III (early) gametocytes, read-out: IC50 in P. falciparum stage I–III gametocytes): 0.095 ± 0.002 µM | IC50 ([2]; stage V gametocytes, read-out: IC50 in P. falciparum stage V gametocytes (converted)): 0.103 µM | CC50 at 96 h [3]: 0.93 ± 0.01 µM | inhibition at 30 min, 10 µM [4]: 35 ± 3% | fraction unbound at 4 h, 5 μM [5]: 0.003 | CC50 at 48 h [6]: 14.8 ± 3.8 µM | concentration that abolished ookinete production [7]: ca. 0.5 µM | Hepatocyte stability (% remaining after 2 h) [8]: 70.4 ^7% | Hepatocyte stability T1/2 [8]: 277.3 ^7 min
